In ChEMBL document CHEMBL1201862, “PubChem BioAssay data set” (2004):
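How tested: cells in 96-well plates exposed to compound for 48 hours at five concentrations. GI50 is the concentration that inhibits growth by half.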 The source made the active and inactive calls. Rule as the data show it: active = GI50 up to about 1.1 µM and inactive = higher.

Key:
Experiment in all cases: NCI anticancer screen, dose series, 48 h
786-0 = system: 786-0
ACHN = system: ACHN
BT-549 = system: BT-549
DU-145 = system: DU-145
HCT-116 = system: HCT-116
HCT-15 = system: HCT-15
LOX IMVI = system: LOX IMVI
M14 = system: M14
MDA-MB-435 = system: MDA-MB-435
NCI-H226 = system: NCI-H226
OVCAR-5 = system: OVCAR-5
RXF 393 = system: RXF 393
SK-MEL-2 = system: SK-MEL-2
SNB-75 = system: SNB-75
SW-620 = system: SW-620
TK-10 = system: TK-10
UACC-257 = system: UACC-257
UO-31 = system: UO-31
RPMI-8226 = system: RPMI-8226

SMILES | GI50 (786-0) | GI50 (ACHN) | GI50 (BT-549) | GI50 (DU-145) | GI50 (HCT-116) | GI50 (HCT-15) | GI50 (LOX IMVI) | GI50 (M14) | GI50 (MDA-MB-435) | GI50 (NCI-H226) | GI50 (OVCAR-5) | GI50 (RXF 393) | GI50 (SK-MEL-2) | GI50 (SNB-75) | GI50 (SW-620) | GI50 (TK-10) | GI50 (UACC-257) | GI50 (UO-31) | GI50 (RPMI-8226)
CCOC(=O)c1nnsc1NN | 39.3 µM (inactive) | > 100 µM (inactive) | > 100 µM (inactive) | > 100 µM (inactive) | 55.5 µM (inactive) | > 100 µM | 30.1 µM (inactive) | 90.6 µM (inactive) | > 100 µM (inactive) | > 100 µM (inactive) | > 100 µM (inactive) | > 100 µM (inactive) | > 100 µM (inactive) | > 100 µM (inactive) | > 100 µM (inactive) | > 100 µM (inactive) | > 100 µM (inactive) | > 100 µM (inactive) | 
CC(=O)c1c(CO[N+](=O)[O-])[n+]([O-])c2ccccc2[n+]1[O-] | > 100 µM (inactive) | 61.1 µM (inactive) | > 100 µM (inactive) | > 100 µM (inactive) | 47.4 µM (inactive) | 30.8 µM | 58.5 µM (inactive) | 35.1 µM (inactive) | 79.6 µM (inactive) | 34.2 µM (inactive) | > 100 µM (inactive) |  | > 100 µM (inactive) | > 100 µM (inactive) | 63.7 µM (inactive) | > 100 µM (inactive) | > 100 µM (inactive) | 70.6 µM (inactive) | 56.6 µM (inactive)
COc1ccc(/N=N/c2c(C)c(C#N)c(=S)n(C3OC(COC(C)=O)C(OC(C)=O)C(OC(C)=O)C3OC(C)=O)c2C)cc1 (stereo not given) | 22.5 µM (inactive) | > 100 µM (inactive) | > 100 µM (inactive) | > 100 µM (inactive) | > 100 µM (inactive) |  | > 100 µM (inactive) | 90.6 µM (inactive) | > 10 µM (inactive) |  | > 100 µM (inactive) | 62.5 µM (inactive) |  | 16.1 µM (inactive) | > 100 µM (inactive) | > 100 µM (inactive) | > 100 µM (inactive) | > 100 µM (inactive) | > 100 µM (inactive)
C/C(=C\COP(=O)(O)CP(=O)(O)O)CC/C=C(\C)CNc1ccccc1 | > 100 µM (inactive) | > 100 µM (inactive) | 14.6 µM (inactive) | > 100 µM (inactive) | > 100 µM (inactive) | > 100 µM | > 100 µM (inactive) | > 100 µM (inactive) | > 100 µM (inactive) | > 100 µM (inactive) | > 100 µM (inactive) | > 100 µM (inactive) | > 100 µM (inactive) | > 100 µM (inactive) | > 100 µM (inactive) | > 100 µM (inactive) | > 100 µM (inactive) | > 100 µM (inactive) | > 100 µM (inactive)
CC(OC(=O)NCn1cc(-c2ccccc2)nn1)c1ccccc1 (stereo not given) | 88.7 µM (inactive) | 61.2 µM (inactive) | 32.4 µM (inactive) | 42.1 µM (inactive) | 27.9 µM (inactive) | 50.6 µM | 75 µM (inactive) | 17.8 µM (inactive) | 28.8 µM (inactive) | 14.9 µM (inactive) | 49.3 µM (inactive) |  | 37.8 µM (inactive) |  | 58.7 µM (inactive) | 75.2 µM (inactive) | 35.1 µM (inactive) |  | 30.2 µM (inactive)
O=C1/C(=C/c2cccc(Br)c2)Cc2ccccc21 | > 100 µM (inactive) | > 100 µM (inactive) | 34.5 µM (inactive) | 53.8 µM (inactive) | 27.6 µM (inactive) | 49.4 µM | 45.1 µM (inactive) | 67.3 µM (inactive) | 80 µM (inactive) | 21.6 µM (inactive) | > 100 µM (inactive) |  | 28.8 µM (inactive) | > 100 µM (inactive) | > 100 µM (inactive) | 63.5 µM (inactive) | 91 µM (inactive) | 31.8 µM (inactive) | 32.8 µM (inactive)
